Patent US20120128654A1, “Allantoin Administration for the Treatment of Neurodegenerative Disease and Neurotrauma” (UNIVERSITY OF CINCINNATI, priority 2009, published 2012)
Entries after “also recorded” stand apart in the source; their conditions may differ.

Legend:
retinal ganglion cells = settings: repeated i.p. every eight hours, optical nerve transection, adult rats; cited from earlier work
[1] = Oral allantoin administration, plasma allantoin levels in monkeys; type: in vivo, African green monkey
Description: To determine whether oral allantoin administration could increase plasma levels of allantoin in non-human primates, African green monkeys were fed allantoin (n=4). All monkeys were initially fed 26 mg/kg/day for 1 week, after which the allantoin concentration was increased to a level of 52 mg/kg/day for an additional week. The allantoin was mixed to the appropriate concentration in fruit juice and given to the monkeys to drink. For plasma analysis of allantoin venous blood was obtained from the right ventricle (rat) and collected from repeated blood draws (African green monkey). Blood was immediately centrifuged at 10,500 rpms (this needs to be in G) for 5 minutes. Supernatant was then removed and analyzed for allantoin. Enzymatic detection of allantoin was performed as previously described with the exception of reaction volumes being adjusted to accommodate the use of a 96 well microtiter plate (Muratsubaki et al., Enzymatic assay of allantoin in serum using allantoinase and allantoate amidohydrolase, Anal. Biochem. 359:161-166 (2006)). […] Following a 15 minute incubation, absorbance was read on a spectrometer at 340 nm. […] Following a 10 minute incubation absorbance was once again measured at 340 nm. The final absorbance was subtracted from the absorbance following the addition of allantoinase. […] Allantoin levels in plasma were determined utilizing the enzymatic detection assay. […]

[2] = Whole brain allantoin levels after subcutaneous allantoin pellets (blood brain barrier crossing); type: in vivo, Sprague Dawley rats; settings: non-lesioned rats, s.c. allantoin pellets, three days following pellet implantation, relative to control rats
Source text: Continuous s.c. delivery of INO, KO and ALL was achieved by implanting matrix-driven pellets into the s.c. space. Animals were anesthetized with isofluorane and prepared for surgery using sterile procedures. A small incision was made posterior to the scapula and the pellet was placed in the subscapular space contralateral to the incision. This placement technique prevents migration of the pellet towards the incision, thereby reducing the incidents of rejection. Finally, the incision was closed using aseptic procedures. To determine the roles of UA and allantoin in inosine-mediated neuroprotection, animals were treated with the urate oxidase inhibitor KO. This approach has been widely used to prevent the enzymatic metabolism of UA to allantoin in other rodent models of disease.
To measure brain allantoin levels, whole brains were freeze dried, ground into a fine powder and homogenized in 0.8 ml of 2.5% trichloroacetic acid (TCA) per 100 mg. The homogenate was centrifuged at 18,000 rpm for 15 min. […] The remaining supernatant was then analyzed for allantoin.
To determine the ability of allantoin to cross the intact blood brain barrier (BBB), non-lesioned rats received either allantoin pellets or sham implantation. […] Whole brain levels of allantoin were determined enzymatically.

SMILES: OC[C@H]1O[C@@H](n2cnc3c(O)ncnc32)[C@H](O)[C@@H]1O [inosine]
- sparing of retinal ganglion cells (retinal ganglion cells): significant sparing

SMILES: NC(=O)NC1NC(=O)NC1=O (stereo not shown) [allantoin]
- plasma allantoin levels ([1]; African green monkey, oral, after one week at 52 mg/kg/day (following 1 week at 26 mg/kg/day), vs baseline, trough): tripling
- negative health consequences ([1]; monkeys, oral allantoin 26 then 52 mg/kg/day, 1 week each): Neither the rats nor the monkeys exhibited any obvious negative health consequences
- whole brain allantoin levels [2]: approximately double; also recorded: significant increase
